Patent US20120190748A1, “GREATER UTILITY WITH THYROID HORMONE” (priority 2009, published 2012)

Experiments:
[1] = extended due to protein binding; human body; cited from earlier work
[2] = T3 compared with T4; cited from earlier work
[3] = tested on: Thyroid Binding Globulin, Transthyretin and Albumin; details: cited from earlier work; for bound within the blood stream (protein binding): bound by Thyroid Binding Globulin, Transthyretin and Albumin
[4] = Case report: oral thyroid hormone regimens in one subject (Sam) after radioactive iodine ablation for Grave's disease; type: in vivo, human
Method: The subject (Sam), of this case report, was treated with radioactive iodine ablation with a relatively low dose. Prior to diagnosis of Grave's disease, Sam was never known to have free T4 levels above median, and had always maintained the same weight +/−3 lbs beyond the age of 18.
Over the next several years, attempting to ameliorate symptoms, Sam attempted to treat the hypothyroid state with the following means: 0.175 mg of T4 OD, resulting in palpitations, anxiety, stiffness, chest tightness, insomnia, sclerotic skin changes, sweating and heat intolerance within 6 months of initiating therapy. The severity of the symptoms required Sam to return to return to 0.15 mg OD of T4 within 1 week of experiencing the symptoms—remaining at that dose for 6 weeks. […] This was followed by an attempt to treat with: 0.125 mg of T4 with 0.005 mg of T3 OD, resulting in palpitations, anxiety, stiffness, chest tightness, insomnia, sclerotic skin changes, sweating and heat intolerance within 3 weeks of initiating therapy. The severity of the symptoms required Sam to return to 0.15 mg OD of T4 within 2 days of experiencing these symptoms—remaining at that dose for 6 weeks with resolution of the adrenergic symptoms. This was followed by an attempt to treat with: 0.035 mg of T3 OD, resulting in palpitations, anxiety, stiffness, chest tightness, insomnia, sclerotic skin changes, sweating and heat intolerance within 1 week of initiating therapy. The severity of the symptoms required Sam to return to 0.15 mg OD of T4 within 1 day of experiencing these symptoms—remaining at that dose for 6 weeks with resolution of the adrenergic symptoms. This was followed by an attempt to treat with: 0.005 mg of T3 q3:25hours, resulting in palpitations, anxiety, stiffness, chest tightness, insomnia, sclerotic skin changes, sweating and heat intolerance within 1 week of initiating therapy. The severity of the symptoms required Sam to return to 0.15 mg OD of T4 within 1 day of experiencing symptoms—remaining at that dose for many years, with continued nasal congestion and dysphoria.
Then the symptoms all stopped. […] Sam continued this dose for several months. […] Dysphoria and nasal congestion were improved over that which was present with once daily dosing, but still remained present, so Sam attempted to treat with the following: 0.075 mg of T4 q6hours, resulting in dysphoria, nasal congestion, and mild to moderate palpitations, anxiety, stiffness, chest tightness, insomnia, sweating and heat intolerance for 2 days, then the symptoms stopped, until Sam changed treatment to: 0.05 mg of T4 q4hours, resulting in dysphoria, nasal congestion, and mild palpitations, anxiety, stiffness, chest tightness, insomnia, sweating and heat intolerance for 2 days, then the symptoms stopped, with an even greater sense of well being than had been experienced on previous treatment regimes, but Sam further increased the dose to: 0.05 mg of T4 q3hrous, resulting in dysphoria, nasal congestion, and mild palpitations, anxiety, stiffness, chest tightness, insomnia, sclerotic skin changes, sweating and heat intolerance for 3 weeks, then the symptoms stopped. Sam remained on this dose for a period of approximately 3 years. […] Weight loss of 40 lbs (with a resulting body fat of 26% by electrical impedance, and lean mass of 100 lbs.) over the first 15 months occurred followed by weight gain of 15 lbs over the next 15 months (with a resulting body fat of 28% by electrical impedance, and lean mass of 108 lbs.). A reduced incidence and duration of common colds was noted, while at steady state over the 3 year period. On one occasion, when the expiry date of T4 administered was several months nearer to the time of administration, than that of T4 typically administered by Sam, within one day, onset of dysphoria, nasal congestion, palpitations, insomnia, anorexia, night sweats, cold sweats, cold intolerance, weakness and the sensation of weight loss occurred; the symptoms resolved within three days. […]

[5] = 0.05 mg of T4 q3hrous, after the first 15 months
[6] = 0.05 mg of T4 q3hrous, after the next 15 months
[7] = 0.05 mg of T4 q3hrous, at 2.7 years
[8] = dose reduced to 0.05 mg of T4 q4hours, within the first 2 weeks

N[C@@H](Cc1cc(I)c(Oc2ccc(O)c(I)c2)c(I)c1)C(=O)O [T3, 3,5,3′ triiodo-L-thyronine]
biological half-life [1]: approximately 1 days
stability (iodine atoms removed by hydrolysis) [2]: more unstable
bound within the blood stream (protein binding) [3]: 99.6%
time to palpitations, anxiety, stiffness, chest tightness, insomnia, sclerotic skin changes, sweating and heat intolerance after initiating therapy ([4]; 0.005 mg of T3 q3:25hours): ≤ 1 week
time to palpitations, anxiety, stiffness, chest tightness, insomnia, sclerotic skin changes, sweating and heat intolerance after initiating therapy ([4]; 0.035 mg of T3 OD): ≤ 1 week

N[C@@H](Cc1cc(I)c(Oc2cc(I)c(O)c(I)c2)c(I)c1)C(=O)O [T4, 3,5,3′,5′ tetraiodo-L-thyronine]
bound more tightly than T3 ([3]; T4 relative to T3): roughly 10 times
bound within the blood stream (protein binding) [3]: 99.96%
duration of dysphoria, nasal congestion and mild adrenergic symptoms ([4]; 0.05 mg of T4 q3hrous): 3 weeks
body fat by electrical impedance [4, 5]: 26%
lean mass [4, 5]: 100 lbs
body fat by electrical impedance [4, 6]: 28%
lean mass [4, 6]: 108 lbs
Free T4 concentration, gradual decrease ([4]; 0.05 mg of T4 q3hrous, approximately 3 years, remained far above normal): 15%
EKG heart rate (normal sinus rhythm) [4, 7]: 71 beats per minute
blood glucose [4, 7]: normal blood glucose
lipid profile [4, 7]: exceptional lipid profile
serum calcium [4, 7]: slightly above the upper limit of normal
weight loss ([4]; 0.05 mg of T4 q3hrous, over the first 15 months): 40 lbs
weight gain ([4]; 0.05 mg of T4 q3hrous, over the next 15 months): 15 lbs
duration of dysphoria, nasal congestion and mild adrenergic symptoms ([4]; 0.05 mg of T4 q4hours (first time)): 2 days
duration of dysphoria, nasal congestion and mild to moderate adrenergic symptoms ([4]; 0.075 mg of T4 q6hours): 2 days
weight loss ([4]; 0.075 mg of T4 q8hours): 2-3 pounds
duration of dysphoria, nasal congestion and mild to moderate adrenergic symptoms ([4]; 0.088 mg of T4 q8hours): three weeks
effect on previous symptoms (weight gain, body fat increase, insomnia, anorexia, night sweats, cold intolerance, weakness etc.) ([4]; 0.088 mg of T4 q8hours): resolution of the previous symptoms within one week
T4 concentrations ([4]; 0.088 mg of T4 q8hours, continued for several months): higher than normal range
duration of dysphoria, nasal congestion and mild to moderate adrenergic symptoms ([4]; 0.1 mg of T4 q8hours): three weeks
weight gain ([4]; 0.1 mg of T4 q8hours): 2-3 pounds
change in weight (mean, persistent) ([4]; 0.125 mg OD of T4, following several months of treatment): 5 lbs
time to palpitations, anxiety, stiffness, chest tightness, insomnia, sclerotic skin changes, sweating and heat intolerance after initiating therapy ([4]; 0.175 mg of T4 OD): ≤ 6 months
free T4 ([4]; 0.175 mg of T4 OD, in the 6th month): free T4 rose
free T4 levels ([4]; T4 titrated to doses ranging from 0.1 mg OD to 0.25 mg OD): 28 pmol/L
duration of dysphoria, nasal congestion, palpitations, insomnia, anorexia, night sweats, cold intolerance, weakness etc. ([4]; dose reduced to 0.05 mg of T4 q4hours): 8 weeks
free T4 rise [4, 8]: 22%
weight loss [4, 8]: 2-3 lbs
